Measured values from patent publication US20220331318A1, “USE OF AN MDM2 INHIBITOR FOR THE TREATMENT OF MYELOFIBROSIS” (Novartis AG, priority 2019, published 2022).

Assays:
[1] = target: JAK3 (Homo sapiens, UniProt P52333); conditions: at clinically relevant concentrations; cited from earlier work
[2] = system: broad panel of 26 kinases; conditions: tested at 200 nM; cited from earlier work
[3] = system: other major CYP enzymes or transporters; conditions: cited from earlier work
[4] = Preliminary PK analysis, Phase I/II study of ruxolitinib with siremadlin in myelofibrosis patients; type: in vivo, human; conditions: for Exposure compared with historical single-agent data: combination of ruxolitinib and siremadlin 20 mg QD
Excerpt: (§1) A Randomized, Open-Label, Phase I/II Open Platform Study Evaluating Safety and Efficacy of Novel Ruxolitinib Combination in Myelofibrosis Patients
(§2) The purpose of this study is to investigate the safety, pharmacokinetics and preliminary efficacy of combination treatment of ruxolitinib with siremadlin in MF subjects. The study consists of three parts:
Dose reductions/interruptions were not taken into consideration for this preliminary PK analysis. Nominal times were used.
This study was not specifically designed to investigate the potential for PK drug interactions, however comparative assessment of historical data has been done. A PK DDI between ruxolitinib and siremadlin is unlikely or predicted to be low, based on PBPK analysis.

[5] = system: solid and hematological tumors; conditions: preclinical and clinical PK/PD modeling (Guerreiro et al 2018, Meille et al 2017); cited from earlier work
[6] = system: CYP3A4/5; experiment: CYP3A4/5 induction in vitro; type: in vitro ADME; conditions: net effect anticipated rather as an inhibitor than an inducer
[7] = system: AML subjects; experiment: Phase I study HDM201X2101, single-agent siremadlin in solid tumors or hematologic malignancies (R/R AML); type: in vivo, human
Excerpt: In this study, the selection of the siremadlin dose and regimen is based on the currently available preclinical and clinical safety, efficacy, PK and PK/PD modeling information from the phase I study HDM201X2101, a dose escalation and expansion study of single-agent siremadlin in patients with solid tumors or hematologic malignancies (R/R AML). At the time of data cut-off (15 Jan. 2018), 199 subjects have been treated applying various dosing regimens: 115 subjects with solid and 84 patients with hematological tumors. Safety and efficacy data from this trial in AML subjects was used to determine a recommended Phase 2 dose regimen of 45 mg once a day (QD) from day 1 to day 7 of a 28-day cycle (regimen 2C) which is disclosed in WO/2018/178925 (incorporated herewith by reference), At this dose regimen, Complete Response/Complete Response with incomplete blood count recovery (CR/CRi) were respectively 2/4 subjects out of 24 (25%).

[8] = system: CYP3A4/5; experiment: CYP3A4/5 inhibition in vitro; type: in vitro ADME
[9] = target: T1, BCRP (Homo sapiens, UniProt Q9UNQ0); experiment: BCRP substrate assessment in vitro; type: in vitro ADME
T1 sequence (Q9UNQ0 1-655): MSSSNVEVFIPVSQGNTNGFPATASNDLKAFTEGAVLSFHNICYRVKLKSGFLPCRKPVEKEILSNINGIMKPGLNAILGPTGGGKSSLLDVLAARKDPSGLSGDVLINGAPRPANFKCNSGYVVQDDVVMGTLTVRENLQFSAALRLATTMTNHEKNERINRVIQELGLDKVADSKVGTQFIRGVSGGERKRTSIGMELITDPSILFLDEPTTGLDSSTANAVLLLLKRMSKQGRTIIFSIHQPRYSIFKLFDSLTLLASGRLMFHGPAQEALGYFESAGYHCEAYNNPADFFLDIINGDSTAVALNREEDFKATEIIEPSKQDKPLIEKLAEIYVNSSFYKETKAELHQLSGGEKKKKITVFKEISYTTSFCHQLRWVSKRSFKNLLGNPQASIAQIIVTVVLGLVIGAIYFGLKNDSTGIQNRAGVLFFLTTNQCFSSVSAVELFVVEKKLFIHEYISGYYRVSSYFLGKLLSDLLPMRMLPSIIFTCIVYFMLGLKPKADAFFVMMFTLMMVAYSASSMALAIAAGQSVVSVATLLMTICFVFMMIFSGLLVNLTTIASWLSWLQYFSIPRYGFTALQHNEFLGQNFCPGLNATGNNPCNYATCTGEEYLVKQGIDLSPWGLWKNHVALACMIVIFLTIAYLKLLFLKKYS

[10] = system: myelofibrosis patients; experiment: Safety (DLTs, SAEs), cohort 1 of Phase I/II study of siremadlin in combination with ruxolitinib in myelofibrosis patients; type: in vivo, human; conditions: 7 patients, cohort 1, 20 mg Siremadlin in combination with Ruxolitinib
Excerpt: as §1, §2
Incidence and severity of dose limiting toxicity (DLTs) within the first 2 treatment cycles in Part 1 of the study
1 patient potentially not evaluable due to Siremadlin interruption within first 2 cycles of treatment. PK DDI between ruxolitinib and Siremadlin is unlikely or predicted to be low, based on PBPK analysis. As per statistical model the dose of Siremadlin can be increased to 30 mg or 40 mg D1-D5 in the next cohort.

[11] = target: CYP3A4 (Homo sapiens, UniProt P08684); experiment: Metabolism by CYP enzymes; type: in vitro ADME; conditions: siremadlin
CYP3A4, sequence (P08684 whole entry): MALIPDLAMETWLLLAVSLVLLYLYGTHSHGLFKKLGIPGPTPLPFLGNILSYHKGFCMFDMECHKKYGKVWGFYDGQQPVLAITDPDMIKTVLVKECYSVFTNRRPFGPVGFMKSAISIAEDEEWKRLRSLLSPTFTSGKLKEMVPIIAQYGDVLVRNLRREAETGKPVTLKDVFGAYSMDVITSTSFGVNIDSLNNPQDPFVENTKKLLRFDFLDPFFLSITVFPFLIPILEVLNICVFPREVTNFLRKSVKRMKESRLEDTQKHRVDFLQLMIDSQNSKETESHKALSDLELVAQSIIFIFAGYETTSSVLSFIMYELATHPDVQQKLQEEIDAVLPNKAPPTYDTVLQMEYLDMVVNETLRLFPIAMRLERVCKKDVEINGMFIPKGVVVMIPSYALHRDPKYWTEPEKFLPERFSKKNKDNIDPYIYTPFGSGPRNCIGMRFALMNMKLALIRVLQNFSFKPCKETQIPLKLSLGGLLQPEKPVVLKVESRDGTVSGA

[12] = target: P-gp (Homo sapiens, UniProt P08183); experiment: P-gp substrate assessment in vitro; type: in vitro ADME
P-gp, sequence (P08183 whole entry): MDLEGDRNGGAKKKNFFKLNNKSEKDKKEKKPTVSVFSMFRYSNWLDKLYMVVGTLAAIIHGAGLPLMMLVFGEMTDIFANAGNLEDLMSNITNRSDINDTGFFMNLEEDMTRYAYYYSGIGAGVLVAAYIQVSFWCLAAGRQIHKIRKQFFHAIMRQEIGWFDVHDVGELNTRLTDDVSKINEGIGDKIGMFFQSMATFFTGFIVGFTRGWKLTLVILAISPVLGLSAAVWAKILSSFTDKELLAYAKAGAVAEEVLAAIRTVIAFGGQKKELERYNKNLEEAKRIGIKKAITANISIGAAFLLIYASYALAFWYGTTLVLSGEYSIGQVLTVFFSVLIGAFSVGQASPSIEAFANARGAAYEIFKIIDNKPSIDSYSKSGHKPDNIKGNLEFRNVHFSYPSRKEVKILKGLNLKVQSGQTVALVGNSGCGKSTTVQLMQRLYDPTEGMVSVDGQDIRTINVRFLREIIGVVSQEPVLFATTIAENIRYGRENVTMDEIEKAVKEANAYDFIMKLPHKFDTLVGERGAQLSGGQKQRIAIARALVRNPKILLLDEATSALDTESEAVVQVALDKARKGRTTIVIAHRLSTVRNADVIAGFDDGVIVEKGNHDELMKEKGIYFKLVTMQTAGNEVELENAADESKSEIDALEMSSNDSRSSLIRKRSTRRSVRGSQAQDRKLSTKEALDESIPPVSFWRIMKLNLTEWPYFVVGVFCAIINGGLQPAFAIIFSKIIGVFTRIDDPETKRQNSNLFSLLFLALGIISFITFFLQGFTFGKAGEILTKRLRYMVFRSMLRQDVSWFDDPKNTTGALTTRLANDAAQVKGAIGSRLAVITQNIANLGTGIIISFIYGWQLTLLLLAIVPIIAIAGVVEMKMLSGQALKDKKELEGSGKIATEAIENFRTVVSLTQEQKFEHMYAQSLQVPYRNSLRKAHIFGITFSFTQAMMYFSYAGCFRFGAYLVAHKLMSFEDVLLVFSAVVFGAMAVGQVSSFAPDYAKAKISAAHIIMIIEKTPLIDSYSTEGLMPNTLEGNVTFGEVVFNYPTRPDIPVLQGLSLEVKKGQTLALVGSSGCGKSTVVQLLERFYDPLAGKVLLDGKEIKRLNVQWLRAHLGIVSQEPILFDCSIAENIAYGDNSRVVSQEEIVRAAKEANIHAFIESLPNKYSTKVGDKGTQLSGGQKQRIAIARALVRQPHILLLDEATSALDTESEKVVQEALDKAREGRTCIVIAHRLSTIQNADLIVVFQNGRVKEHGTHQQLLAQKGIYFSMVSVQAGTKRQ

[13] = AML, 45 mg QD day 1 to day 7 of a 28-day cycle (regimen 2C)

JAK3, sequence (P52333 whole entry): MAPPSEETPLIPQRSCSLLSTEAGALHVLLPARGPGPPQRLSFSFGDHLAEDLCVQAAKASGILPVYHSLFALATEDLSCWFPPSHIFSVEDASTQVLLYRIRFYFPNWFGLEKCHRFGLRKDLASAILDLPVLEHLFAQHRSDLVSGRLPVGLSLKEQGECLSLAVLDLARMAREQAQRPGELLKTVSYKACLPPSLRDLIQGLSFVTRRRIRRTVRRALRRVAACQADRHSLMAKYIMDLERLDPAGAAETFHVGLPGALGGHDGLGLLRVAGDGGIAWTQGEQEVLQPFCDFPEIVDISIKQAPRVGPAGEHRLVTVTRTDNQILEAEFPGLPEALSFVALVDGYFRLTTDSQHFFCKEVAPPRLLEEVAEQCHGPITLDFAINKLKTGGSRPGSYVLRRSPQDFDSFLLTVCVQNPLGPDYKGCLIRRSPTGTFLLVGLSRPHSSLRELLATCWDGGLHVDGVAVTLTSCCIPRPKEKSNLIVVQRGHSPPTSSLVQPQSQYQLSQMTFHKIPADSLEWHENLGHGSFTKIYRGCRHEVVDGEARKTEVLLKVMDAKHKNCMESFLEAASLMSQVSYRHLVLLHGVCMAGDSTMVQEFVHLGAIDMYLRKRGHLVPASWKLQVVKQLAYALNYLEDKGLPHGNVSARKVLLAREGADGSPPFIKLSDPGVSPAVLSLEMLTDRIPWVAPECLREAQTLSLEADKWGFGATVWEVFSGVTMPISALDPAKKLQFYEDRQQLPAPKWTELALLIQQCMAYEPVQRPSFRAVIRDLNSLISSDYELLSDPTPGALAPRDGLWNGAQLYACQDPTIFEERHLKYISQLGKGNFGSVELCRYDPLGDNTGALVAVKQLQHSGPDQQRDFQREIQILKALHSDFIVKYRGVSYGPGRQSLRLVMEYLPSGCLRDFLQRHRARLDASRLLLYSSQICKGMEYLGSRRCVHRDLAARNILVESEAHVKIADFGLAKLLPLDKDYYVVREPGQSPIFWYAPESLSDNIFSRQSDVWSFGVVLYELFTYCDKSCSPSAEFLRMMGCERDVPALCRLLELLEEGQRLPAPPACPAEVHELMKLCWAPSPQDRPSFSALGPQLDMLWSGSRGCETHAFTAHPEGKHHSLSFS

induction of CYP3A4/5 [6] | BCRP substrate [9] | metabolizing enzyme [11] | P-gp substrate [12] | SMILES | inhibition of JAK3 [1] | inhibition of a broad panel of 26 kinases [2] [%] | capacity to inhibit other major CYP enzymes or transporters [3] | Exposure compared with historical single-agent data ([4]; MF patients) | accumulation upon repeated dosing ([4]; MF patients, ruxolitinib 10, 15 or 20 mg BID with siremadlin) | half-life ([4]; human, in vivo, oral, 20 mg) [h] | anti-tumor activity on reducing application from 7 to 5 consecutive days per 28-day cycle [5] | Complete Response (CR) [7, 13] | Complete Response with incomplete blood count recovery (CRi) [7, 13] | CR/CRi rate ([7]; AML, 45 mg QD day 1 to day 7 of a 28-day cycle (regimen 2C), 24 subjects) [%] | dose-limiting toxicity (DLT) ([7]; hematological tumor patients, regimen 2C) | severity of adverse events ([7]; hematological tumor patients, regimen 2C, cytopenias most commonly observed) | most frequently reported adverse drug reactions in clinic ([7]; single agent) | inhibition of CYP3A4/5 [8] | DLTs [10] | on treatment SAEs [10]
 |  |  |  | N#CC[C@H](C1CCCC1)n1cc(-c2ncnc3[nH]ccc23)cn1 [ruxolitinib, (R)-3-(4-(7H-pyrrolo[2,3-d]pyrimidin-4-yl)-1H-pyrazol-1-yl)-3-cyclopentylpropanenitrile] | does not inhibit | < 30 | little or no capacity to inhibit | within the exposure range of values observed previously | little accumulation | 3 to 4 |  |  |  |  |  |  |  |  |  | 
inducer | substrate | predominantly metabolized by CYP3A4 | substrate | COc1ncc(-c2nc3c(n2C(C)C)[C@H](c2ccc(Cl)cc2)N(c2cc(Cl)cn(C)c2=O)C3=O)c(OC)n1 [siremadlin, (S)-5-(5-Chloro-1-methyl-2-oxo-1,2-dihydro-pyridin-3-yl)-6-(4-chloro-phenyl)-2-(2,4-dimethoxy-pyrimidin-5-yl)-1-isopropyl-5,6-dihydro-1H-pyrrolo[3,4-d]imidazol-4-one] |  |  |  | comparable to exposures observed previously |  |  | maintains equivalent anti-tumor activity | 2 subjects out of 24 | 4 subjects out of 24 | 25 | tumor lysis syndrome (TLS) | mild to moderate in severity, reversible and manageable | hematological toxicities including thrombocytopenia, neutropenia and anemia | time-dependent inhibitor and a reversible inhibitor | no DLTs | no on treatment SAEs
